Measured values from PMC7382501 (Nature Communications, 2020).

Tests used:
FasRL106F = FasRL106F (Mycobacterium tuberculosis, UniProt O05858, L106F); assay type: biochemical
FasRLVL = FasRLVL (Mycobacterium tuberculosis, UniProt O05858, L106F/L185F/V163F); assay type: biochemical
FasRF123A = FasRF123A (Mycobacterium tuberculosis, UniProt O05858, F123A); assay type: binding

CCCCCCCCCCCCCCCCCCCC(=O)SCCNC(=O)CCNC(=O)[C@H](O)C(C)(C)COP(=O)(O)OP(=O)(O)OC[C@H]1O[C@@H](n2cnc3c(N)ncnc32)[C@H](O)[C@@H]1OP(=O)(O)O [C20-CoA, arachidoyl-CoA]
acyl-CoA concentration at which the protein–DNA complex dissociates (FasRL106F): > 4 µM
protein–DNA complex in the presence of ligand (FasRLVL): remained bound to DNA
SPR association of FasRF123A to C20-CoA compared with FasRwt (FasRF123A): comparable association kinetics
